Laboratory results: the supplement of paper PMC10307832

Experiments:
Experiment in all cases: relative viability (nuclei count vs DMSO), 5 days (fraction); higher = more cells survive
[1] = compound: CN(c1ncccc1CNc1nc(Nc2ccc3c(c2)CC(=O)N3)ncc1C(F)(F)F)S(C)(=O)=O + C[C@@H](Oc1cc(-c2cnn(C3CCNCC3)c2)cnc1N)c1c(Cl)ccc(F)c1Cl [Crizotinib] (partner 1 µM)
Method in brief: (§1)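 For relative viability, nuclei counts in treated wells were divided by those in vehicle wells. Lung cancer cell lines had been pin-tool dosed in 1536-well plates the day after seeding and cultured for 5 days, then fixed and stained in one step (final 0.05% Triton X-100, 1% formaldehyde, 1 ug/ml Hoechst) and imaged at 4×. Doses were one drug alone or a fixed anchor-drug dose plus five library-drug doses (not always all listed) in √10 steps, and values are duplicate-plate medians.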

[2] = compound: CN(c1ncccc1CNc1nc(Nc2ccc3c(c2)CC(=O)N3)ncc1C(F)(F)F)S(C)(=O)=O + N=C(N)NC(=N)NCCc1ccccc1 [Phenformin] (partner 250 µM)
Method in brief: as §1

[3] = compound: CN(c1ncccc1CNc1nc(Nc2ccc3c(c2)CC(=O)N3)ncc1C(F)(F)F)S(C)(=O)=O + CC1(C)CCC(c2ccc(Cl)cc2)=C(CN2CCN(c3ccc(C(=O)NS(=O)(=O)c4ccc(N[C@H](CCN5CCOCC5)CSc5ccccc5)c(S(=O)(=O)C(F)(F)F)c4)cc3)CC2)C1 [Navitoclax] (partner 0.5 µM)
Method in brief: as §1

[4] = compound: CN(c1ncccc1CNc1nc(Nc2ccc3c(c2)CC(=O)N3)ncc1C(F)(F)F)S(C)(=O)=O + Nc1ncn([C@H]2C[C@H](O)[C@@H](CO)O2)c(=O)n1 [Decitabine] (partner 2 µM)
Method in brief: as §1

Cell Line	relative viability ([1]; first compound 0.01 µM)	relative viability ([1]; first compound 0.03162 µM)	relative viability ([1]; first compound 0.1 µM)	relative viability ([1]; first compound 0.3162 µM)	relative viability ([1]; first compound 1 µM)	relative viability ([2]; first compound 0.01 µM)	relative viability ([2]; first compound 0.03162 µM)	relative viability ([2]; first compound 0.1 µM)	relative viability ([2]; first compound 0.3162 µM)	relative viability ([2]; first compound 1 µM)	relative viability ([3]; first compound 0.01 µM)	relative viability ([3]; first compound 0.03162 µM)	relative viability ([3]; first compound 0.1 µM)	relative viability ([3]; first compound 0.3162 µM)	relative viability ([3]; first compound 1 µM)	relative viability ([4]; first compound 0.01 µM)	relative viability ([4]; first compound 0.03162 µM)	relative viability ([4]; first compound 0.1 µM)	relative viability ([4]; first compound 0.3162 µM)	relative viability ([4]; first compound 1 µM)
201T	1.05	0.991	1.02	0.975	1	0.43	0.394	0.445	0.443	0.437	1.21	1.26	1.18	1.16	1.15	0.846	0.856	0.808	0.85	0.771
A549	0.762	0.799	0.803	0.797	0.526	0.189	0.205	0.173	0.133	0.152	1.19	1.07	1.26	1.13	1.1	0.271	0.258	0.285	0.257	0.257
A-427	0.916	0.964	0.951	0.783	0.725	0.337	0.315	0.353	0.269	0.291	0.999	0.973	1.02	0.973	0.945	0.549	0.568	0.588	0.664	0.61
ABC-1	1.12	1.21	1.09	1.15	1.17	0.214	0.238	0.26	0.279	0.229	–	–	–	–	–	1.01	1.17	0.949	0.944	1.09
BEN	0.825	0.949	0.813	0.848	0.848	0.253	0.281	0.268	0.336	0.246	0.0691	0.0546	0.0649	0.0815	0.0763	0.739	0.739	0.715	0.763	0.671
CAL-12T	0.619	0.538	0.576	0.566	0.593	0.628	0.523	0.536	0.512	0.444	1.25	1.1	1.27	1.27	0.883	–	–	–	–	–
COR-L23	0.653	0.649	0.7	0.594	0.486	0.464	0.54	0.416	0.424	0.332	0.929	1.09	0.933	1.01	0.826	0.417	0.493	0.44	0.503	0.399
COR-L 105	0.64	0.649	0.779	0.747	0.47	0.46	0.493	0.45	0.418	0.492	0.773	0.833	0.869	0.777	0.493	0.762	0.68	0.728	0.733	0.697
Calu-6	0.809	0.828	0.774	0.725	0.546	–	–	–	–	–	0.848	0.863	0.78	0.777	0.772	–	–	–	–	–
ChaGo-K-1	1.1	1.21	1.08	–	1.05	0.489	0.444	0.461	0.489	0.404	1.04	0.819	1.11	–	1.08	0.565	0.549	0.438	0.527	0.492
EBC-1	0.204	0.195	0.216	0.2	0.186	–	–	–	–	–	0.461	0.318	0.351	0.385	0.302	–	–	–	–	–
EKVX	0.895	0.828	0.98	0.801	0.789	0.251	0.236	0.24	0.231	0.24	0.974	1.02	0.944	0.852	0.81	0.372	0.327	0.301	0.342	0.335
EMC-BAC-2	0.798	0.817	0.717	0.78	0.778	0.628	0.568	0.496	0.551	0.452	1.18	1.24	1.05	1.16	1.2	0.994	1.02	0.915	0.963	0.982
EPLC-272H	0.912	0.873	0.888	0.968	0.93	0.307	0.309	0.339	0.327	0.345	1.28	1.08	1.16	1.35	0.97	0.367	0.339	0.357	0.397	0.336
H3255	0.945	1.03	0.832	0.663	0.839	0.34	0.339	0.316	0.384	0.342	0.606	0.518	0.616	0.475	0.35	0.633	0.587	0.572	0.552	0.615
HARA	0.938	0.938	1	1.02	0.698	0.449	0.5	0.532	0.432	0.356	1.18	1.19	1.14	0.91	0.968	0.66	0.599	0.492	0.597	0.573
HCC-15	0.821	0.746	0.739	0.707	0.6	0.492	0.501	0.463	0.384	0.405	0.716	0.745	0.639	0.579	0.507	0.639	0.629	0.548	0.496	0.523

Cell Line	relative viability ([1]; first compound 0.01 µM)	relative viability ([1]; first compound 0.03162 µM)	relative viability ([1]; first compound 0.1 µM)	relative viability ([1]; first compound 0.3162 µM)	relative viability ([1]; first compound 1 µM)	relative viability ([2]; first compound 0.01 µM)	relative viability ([2]; first compound 0.03162 µM)	relative viability ([2]; first compound 0.1 µM)	relative viability ([2]; first compound 0.3162 µM)	relative viability ([2]; first compound 1 µM)	relative viability ([3]; first compound 0.01 µM)	relative viability ([3]; first compound 0.03162 µM)	relative viability ([3]; first compound 0.1 µM)	relative viability ([3]; first compound 0.3162 µM)	relative viability ([3]; first compound 1 µM)	relative viability ([4]; first compound 0.01 µM)	relative viability ([4]; first compound 0.03162 µM)	relative viability ([4]; first compound 0.1 µM)	relative viability ([4]; first compound 0.3162 µM)	relative viability ([4]; first compound 1 µM)
HCC-44	0.876	0.893	0.798	0.788	0.749	0.193	0.171	0.297	0.239	0.316	0.977	1.15	0.951	0.905	0.756	0.871	0.956	0.898	0.977	0.996
HCC-78	0.379	0.342	0.305	0.29	0.319	0.67	0.662	0.563	0.566	0.573	0.81	0.845	0.73	0.632	0.674	0.755	0.699	0.719	0.636	0.697
IA-LM	0.862	0.924	0.908	0.91	0.714	–	–	–	–	–	0.712	0.726	0.786	0.788	0.654	–	–	–	–	–
LCLC-103H	1.14	1.08	1.11	0.906	0.895	0.337	0.298	0.277	0.348	0.318	–	–	–	–	–	0.68	0.673	0.697	0.672	0.684
NCI-H358	0.608	0.449	0.515	0.449	0.303	0.336	0.338	0.317	0.317	0.202	–	–	–	–	–	0.195	0.221	0.251	0.221	0.183
NCI-H522	–	–	–	–	–	0.664	0.645	0.629	0.819	0.696	–	–	–	–	–	0.553	0.685	0.649	0.644	0.637
NCI-H650	0.68	0.727	0.675	0.538	0.675	0.492	0.464	0.396	0.393	0.441	–	–	–	–	–	0.316	0.351	0.342	0.285	0.307
NCI-H661	0.973	0.955	1.02	0.904	0.915	0.285	0.286	0.289	0.277	0.294	–	–	–	–	–	0.551	0.649	0.589	0.56	0.568
NCI-H1299	0.989	1.02	0.979	0.995	0.955	–	–	–	–	–	1.04	1.05	1.06	1.07	1.04	–	–	–	–	–
NCI-H1395	–	–	–	–	–	0.455	0.463	0.459	0.454	0.417	1.19	1.25	1.04	1.06	1.31	0.711	0.767	0.678	0.771	0.785
NCI-H1563	0.855	0.83	0.91	0.864	0.799	0.677	0.686	0.683	0.634	0.649	–	–	–	–	–	–	–	–	–	–
NCI-H1648	–	–	–	–	–	–	–	–	–	–	–	–	–	–	–	0.6	0.476	0.426	0.485	0.367
NCI-H1703	0.586	0.678	1.15	0.986	0.417	–	–	–	–	–	0.951	1.12	1.03	1.11	1.02	–	–	–	–	–
NCI-H1793	–	–	–	–	–	0.398	0.384	0.403	0.247	0.197	0.407	0.562	0.498	0.377	0.303	0.494	0.563	0.458	0.45	0.432
NCI-H2228	0.408	0.516	0.39	0.47	0.402	0.321	0.471	0.306	0.331	0.292	0.732	1.18	0.783	0.755	0.741	–	–	–	–	–
NCI-H2342	–	–	–	–	–	0.638	0.563	0.475	0.522	0.475	–	–	–	–	–	0.802	0.728	0.631	0.742	0.717
SW 900	–	–	–	–	–	0.745	0.735	0.602	0.515	0.581	–	–	–	–	–	0.437	0.466	0.425	0.449	0.454
